Data: PMC5536041, “Inhibitory Effects of Trapping Agents of Sulfur Drug Reactive Intermediates against Major Human Cytochrome P450 Isoforms” (International Journal of Molecular Sciences, 2017)
Like-named read-outs stand apart in the source and are kept apart here.

How the values were obtained:
[1] = test system: major human CYP isoforms (CYP1A2, 2C9, 2C19, 2D6 and 3A); assay: CYP inhibition in human liver microsomes, summary over the isoform panel; settings: HLM + NADPH
CYP3A [2] = target: T1, CYP3A (Homo sapiens, UniProt P08684); settings: microsomes
T1 sequence (P08684 2-503 limits assumed): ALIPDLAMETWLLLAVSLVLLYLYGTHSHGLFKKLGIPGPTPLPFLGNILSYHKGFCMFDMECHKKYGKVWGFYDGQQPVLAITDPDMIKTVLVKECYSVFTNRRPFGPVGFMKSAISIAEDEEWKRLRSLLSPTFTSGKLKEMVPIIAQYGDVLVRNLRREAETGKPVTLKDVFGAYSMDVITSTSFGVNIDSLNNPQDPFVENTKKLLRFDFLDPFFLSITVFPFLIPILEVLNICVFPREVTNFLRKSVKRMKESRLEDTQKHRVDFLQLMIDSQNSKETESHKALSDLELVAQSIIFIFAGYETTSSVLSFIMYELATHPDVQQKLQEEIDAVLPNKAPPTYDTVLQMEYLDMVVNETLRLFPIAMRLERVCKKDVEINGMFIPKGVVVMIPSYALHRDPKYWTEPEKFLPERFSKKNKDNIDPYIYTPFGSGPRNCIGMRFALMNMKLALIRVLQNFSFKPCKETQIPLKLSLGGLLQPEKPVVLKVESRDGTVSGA

CYP1A2 [3] = target: T2, CYP1A2 (Homo sapiens, UniProt P05177); settings: microsomes
T2 sequence (P05177 1-516): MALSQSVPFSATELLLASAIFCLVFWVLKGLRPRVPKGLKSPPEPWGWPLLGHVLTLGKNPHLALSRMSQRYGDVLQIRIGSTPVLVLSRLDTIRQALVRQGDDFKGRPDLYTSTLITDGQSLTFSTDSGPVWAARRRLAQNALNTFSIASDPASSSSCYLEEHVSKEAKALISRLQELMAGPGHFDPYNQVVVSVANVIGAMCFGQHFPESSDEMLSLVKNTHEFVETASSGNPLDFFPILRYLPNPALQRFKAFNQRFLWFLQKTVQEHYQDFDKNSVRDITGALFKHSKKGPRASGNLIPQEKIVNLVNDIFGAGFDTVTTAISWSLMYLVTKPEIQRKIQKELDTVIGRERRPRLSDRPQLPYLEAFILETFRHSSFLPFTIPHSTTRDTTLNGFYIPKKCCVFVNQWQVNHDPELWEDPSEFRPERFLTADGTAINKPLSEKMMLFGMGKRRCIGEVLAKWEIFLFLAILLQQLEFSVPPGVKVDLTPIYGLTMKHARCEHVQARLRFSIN

CYP2D6 [4] = target: T3, CYP2D6 (Homo sapiens, UniProt P10635); settings: microsomes
T3 sequence (P10635 whole entry): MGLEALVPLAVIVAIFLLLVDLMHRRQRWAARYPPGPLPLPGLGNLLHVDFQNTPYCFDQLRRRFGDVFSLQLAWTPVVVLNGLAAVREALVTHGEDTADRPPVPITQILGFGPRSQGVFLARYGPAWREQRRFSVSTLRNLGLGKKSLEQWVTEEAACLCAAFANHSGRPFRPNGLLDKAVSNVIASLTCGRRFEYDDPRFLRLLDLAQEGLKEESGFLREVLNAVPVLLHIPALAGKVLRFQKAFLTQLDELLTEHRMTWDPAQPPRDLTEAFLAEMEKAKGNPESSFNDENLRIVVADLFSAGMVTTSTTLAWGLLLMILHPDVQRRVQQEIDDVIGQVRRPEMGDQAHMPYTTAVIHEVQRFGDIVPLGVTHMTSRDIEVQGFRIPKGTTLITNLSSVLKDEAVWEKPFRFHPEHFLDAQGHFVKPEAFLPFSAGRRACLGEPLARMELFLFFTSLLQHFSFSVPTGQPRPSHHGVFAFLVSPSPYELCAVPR

CYP2C9 [5] = target: T4, CYP2C9 (Homo sapiens, UniProt P11712); settings: microsomes
T4 sequence (P11712 whole entry): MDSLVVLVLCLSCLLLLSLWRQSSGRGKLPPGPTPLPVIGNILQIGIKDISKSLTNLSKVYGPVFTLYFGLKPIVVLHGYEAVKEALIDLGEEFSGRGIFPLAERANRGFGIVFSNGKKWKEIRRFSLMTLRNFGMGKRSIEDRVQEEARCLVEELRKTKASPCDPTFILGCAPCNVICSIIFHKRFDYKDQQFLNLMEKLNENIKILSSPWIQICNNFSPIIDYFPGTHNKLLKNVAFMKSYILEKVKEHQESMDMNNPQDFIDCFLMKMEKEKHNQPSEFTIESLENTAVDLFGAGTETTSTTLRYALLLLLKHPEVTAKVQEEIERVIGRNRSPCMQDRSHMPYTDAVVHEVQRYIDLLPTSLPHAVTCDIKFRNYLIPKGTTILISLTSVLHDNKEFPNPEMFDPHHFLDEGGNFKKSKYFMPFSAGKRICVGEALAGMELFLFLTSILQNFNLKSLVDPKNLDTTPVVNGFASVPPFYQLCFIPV

CYP2C19 [6] = target: T5, CYP2C19 (Homo sapiens, UniProt P33261); settings: microsomes
T5 sequence (P33261 whole entry): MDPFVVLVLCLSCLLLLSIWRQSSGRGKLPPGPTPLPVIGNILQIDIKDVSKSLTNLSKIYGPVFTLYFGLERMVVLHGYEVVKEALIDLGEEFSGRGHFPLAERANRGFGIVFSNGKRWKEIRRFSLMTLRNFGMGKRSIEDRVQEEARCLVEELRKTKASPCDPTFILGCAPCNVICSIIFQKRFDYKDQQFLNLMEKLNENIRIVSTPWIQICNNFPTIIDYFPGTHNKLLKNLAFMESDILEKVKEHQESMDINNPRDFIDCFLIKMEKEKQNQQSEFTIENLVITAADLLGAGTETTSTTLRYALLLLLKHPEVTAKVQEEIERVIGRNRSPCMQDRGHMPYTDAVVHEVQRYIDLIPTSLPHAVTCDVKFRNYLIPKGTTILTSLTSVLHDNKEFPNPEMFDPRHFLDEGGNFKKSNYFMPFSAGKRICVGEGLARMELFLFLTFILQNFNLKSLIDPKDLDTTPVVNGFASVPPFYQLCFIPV

CYP3A [7] = target: T1, CYP3A; settings: microsomes; remark: listed apart in the source
[8] = test system: major human CYP isoforms (CYP1A2, 2C9, 2C19, 2D6 and 3A)
CYP1A2 [9] = target: T2, CYP1A2; assay: CYP inhibition in human liver microsomes, CYP1A2 (tacrine probe)
CYP2C19 [10] = target: T5, CYP2C19; assay: CYP inhibition in human liver microsomes, CYP2C19 ((S)-mephenytoin probe); settings: for Activation of CYP2C19 observed at concentrations up to: HLM + NADPH, (S)-mephenytoin probe
CYP2D6 [11] = target: T3, CYP2D6; assay: CYP inhibition in human liver microsomes, CYP2D6 (dextromethorphan probe)
CYP2C9 [12] = target: T4, CYP2C9; assay: CYP inhibition in human liver microsomes, CYP2C9 ((S)-warfarin probe); settings: for Activation of CYP2C9 observed at concentrations up to: HLM + NADPH, (S)-warfarin probe
[13] = test system: major human CYP isoforms (CYP1A2, 2C9, 2C19, 2D6 and 3A); assay: in vitro; settings: microsomes
CYP3A [14] = target: T1, CYP3A; assay: in vitro; settings: microsomes
CYP3A [15] = target: T1, CYP3A; assay: in vitro; settings: microsomes; remark: listed apart in the source
[16] = test system: ticlopidine metabolism in human liver microsomes (TSOD and TSO-NEM formation); assay: Trapping of reactive metabolites of ticlopidine with NEM in human liver microsomes; assay type: in vitro ADME; settings: ticlopidine 1 μM
Description: Ticlopidine (1 μM) was incubated at 37 °C for 15 min in the presence or absence of various concentrations of NEM with HLM (0.5 mg/mL), NADPH (1 mM) and KPi (0.1 M), in a final incubation volume of 100 µL. Assay conditions were optimized with regard to protein concentration and incubation time, based on linear formation of TSOD. The incubations were performed over a concentration range of NEM (0.0007–40 mM) including a vehicle control, for a total of twelve incubations. A 50 µL sample was withdrawn at 15 min and the reactions were quenched in 100 µL of 0.1% formic acid in ACN containing an IS. Samples were centrifuged at 2000× g for 10 min and supernatants (75 µL) were removed and diluted with 0.1% formic acid in water (150 µL). The prepared samples were analyzed by LC-MS/MS for ticlopidine, N-ethylmaleimide-trapped S-oxide (TSO-NEM) and ticlopidine S-oxide dimer (TSOD). Peak areas were normalized to an IS, and the percentage of metabolite formed at the end of the incubation was calculated and compared to the incubation containing the highest peak area to IS ratio of metabolite (set at 100%).
The prepared samples were analyzed by LC-MS/MS using a Cohesive LX-2 Transcend Multiplexing system with Agilent 1100 series high pressure liquid chromatography (HPLC) pumps from Agilent Technologies (Santa Clara, CA, USA) and an HTS PAL autosampler from CTC Analytics (Carrboro, NC, USA) connected to a Sciex API5500-QTrap mass spectrometer with a Turbo V™ ion source (Foster City, CA, USA). A Phenomenex Kinetex Phenyl-Hexyl HPLC column (30 × 2.1 mm, 2.6 µ) was used with 0.1% formic acid in water (mobile phase A) or 0.1% formic acid in ACN (mobile phase B) flowing at 0.55 mL/min in the following gradient: mobile phase B was held at 1% for 0.4 min, increased to 5% over 0.2 min, to 55% over 6.7 min and to 95% over 0.5 min, where it was held for 0.75 min prior to re-equilibration at 1%. LC-MS/MS multiple reaction (MRM) transitions for the CYP inhibition assay were reported previously. […]

CYP1A2 [17] = target: T2, CYP1A2; assay: in vitro; settings: microsomes

**Q.** `CC1(C)CC(=O)CC(=O)C1` [5,5-dimethyl-1,3-cyclohexanedione] was tested. Which “Inhibition of CYP isoforms at concentrations tested” value [1] did it give?
**A.** Its value is “did not inhibit CYP isoforms at concentrations tested”.

**Q.** With `O=[As][O-].[Na+]` [Arsenite, sodium arsenite] as the compound, how does the IC50 (CYP3A [2]) read?
**A.** The IC50 was over 10 mM.

**Q.** What about the IC50 (CYP1A2 [3]) of the same compound?
**A.** The IC50 was over 10 mM.

**Q.** What about the IC50 (CYP2D6 [4]) of the same compound?
**A.** Its IC50 is over 10 mM.

**Q.** And the IC50 (CYP2C9 [5])?
**A.** The IC50 was over 10 mM.

**Q.** What about the IC50 (CYP2C19 [6]) of the same compound?
**A.** Its IC50 is over 10 mM.

**Q.** And the IC50 (CYP3A [7])?
**A.** The IC50 was over 10 mM.

**Q.** What about the “Concentration up to which no CYP inhibition was shown” value [8] of the same compound?
**A.** The value was “up to 10 mM”.

**Q.** What about the “Inhibition of CYP isoforms at concentrations tested” value [8] of the same compound?
**A.** Its value is “did not inhibit CYP isoforms at concentrations tested”.

**Q.** What does the source list for `C1COCCN1` [Morpholine]?
**A.** IC50 (CYP1A2 [9]): > 100 mM; IC50 (CYP2C19 [10]): 14 mM; IC50 (CYP2D6 [11]): 13 mM; Activation of CYP1A2 (CYP1A2 [3]): activation was observed; IC50 (CYP2C9 [12]): 7.9 mM; IC50 [13]: 7.9 to 16 mM

**Q.** What does the source list for `CC(=O)N[C@@H](CCCCN)C(=O)O` [N-Acetyl-lysine1, N-Acetyl-lysine]?
**A.** Inhibition of CYP isoforms at concentrations tested [1]: did not inhibit CYP isoforms at concentrations tested; Concentration up to which no CYP inhibition was shown ([1]; all isoforms tested): up to 50 mM; IC50 (CYP3A [14]): > 50 mM; IC50 (CYP3A [15]): > 50 mM

**Q.** Which results are given for `CCN1C(=O)C=CC1=O` [N-Ethylmaleimide (NEM), N-Ethylmaleimide]?
**A.** IC50 (CYP2C19 [10]): 2.9 mM; Activation of CYP2C19 observed at concentrations up to (CYP2C19 [10]): up to 0.4 mM; IC50 (CYP2D6 [11]): > 40 mM; NEM concentration at and above which TSO-NEM formation rapidly decreases ([16]; HLM 0.5 mg/mL, NADPH, 15 min): ≥ 165 µM; NEM concentrations with initial increase in TSOD formation ([16]; HLM 0.5 mg/mL, NADPH, 15 min): 0.7 to 18.3 µM; Response of TSO-NEM formation to increasing NEM concentration ([16]; NEM 0.007–40 mM): bell-shaped response curve; IC50 (CYP1A2 [17]): 0.12 mM; IC50 (CYP2C9 [12]): 3.2 mM; Activation of CYP2C9 observed at concentrations up to (CYP2C9 [12]): up to 1 mM

**Q.** `CN1C(=O)C=CC1=O` [N-Methylmaleimide] was tested. Which “Activation of CYP2C19 observed at concentrations up to” value (CYP2C19 [10]) did it give?
**A.** The value was “up to 0.2 mM”.

**Q.** What about the “Activation of CYP2C9 observed at concentrations up to” value (CYP2C9 [12]) of the same compound?
**A.** The value was “up to 0.2 mM”.

**Q.** `CN1CCCCC1` [N-Methylpiperidine] was tested. Which “Activation of CYP1A2 observed at concentrations up to” value (CYP1A2 [9]; HLM + NADPH, tacrine probe) did it give?
**A.** The value was “up to 12.5 mM”.

**Q.** With `O=C(O)CCP(CCC(=O)O)CCC(=O)O` [Tris(2-carboxyethyl) phosphine (TCEP), Tris(2-carboxyethyl) phosphine] as the compound, how does the “Activation of CYP2D6” value (CYP2D6 [11]; HLM + NADPH, dextromethorphan probe) read?
**A.** Its value is “activation was observed”.
